Test results taken from patent US4740476A, “Immunoassay for estriol-3-sulfate” (Nihon Medi-Physics Co., Ltd., priority 1984, dated 1988).
Counter-ions that a name gives are not always drawn.

Target: anti-estriol-3-sulfate antibody immobilized on Sepharose 4B
Experiment: Scatchard plot of [3H]-estriol-3-sulfate binding to immobilized antibody
Design: species or system guinea pig
Settings: immobilized antibody 1:500, incubation at 4° C. for 16 hours
Experimental: A plasma specimen (0.1 ml) diluted with tris-HCl buffer (0.1 mol/liter; pH, 8.3) (containing glutamine (0.1 mol/liter)) was added thereto, and the resulting solution was incubated at 4° C. for 16 hours. The mixture was centrifuged at 3500 rpm for 20 minutes. A 0.2 ml aliquot of each supernatant was taken into a counting vial and admixed with Bray's scintillator, and radioactivity was counted in an Aloka LSC-673 liquid scintillation spectrometer. […] FIG. 1 of the accompanying drawing showing the Scatchard plot graph of anti-estriol-3-sulfate antibody immobilized on Sepharose 4B).

| Structure (SMILES) | association constant (Ka) [L/mol] |
| --- | --- |
| C[C@]12CC[C@@H]3c4ccc(OS(=O)(=O)O)cc4CC[C@H]3[C@@H]1C[C@@H](O)[C@@H]2O [Estriol-3-sulfate] | 4.3e+09 |

System: anti-estriol-3-sulfate antibody immobilized on Sepharose 4B
Experiment: Cross-reaction of various steroids in the radioimmunoassay (50% inhibition of labeled estriol-3-sulfate binding)
Design: species or system guinea pig
Settings: mass ratio of non-labeled estriol-3-sulfate to each steroid required for 50% inhibition of labeled estriol-3-sulfate binding
Experimental: A plasma specimen (0.1 ml) diluted with tris-HCl buffer (0.1 mol/liter; pH, 8.3) (containing glutamine (0.1 mol/liter)) was added thereto, and the resulting solution was incubated at 4° C. for 16 hours. The mixture was centrifuged at 3500 rpm for 20 minutes. A 0.2 ml aliquot of each supernatant was taken into a counting vial and admixed with Bray's scintillator, and radioactivity was counted in an Aloka LSC-673 liquid scintillation spectrometer.
The cross-reactivity is determined by calculating the mass ratio of non-labeled estriol-3-sulfate to each steriod required to show 50% inhibition of the labeled estiol-3-sulfate binding to the antibody.

| Structure (SMILES) | Cross-reaction (%) |
| --- | --- |
| C[C@]12CC[C@H](O)CC1=CC[C@@H]1[C@@H]2CC[C@]2(C)C(=O)CC[C@@H]12 [Dehydroepiandrosterone] | < 0.001 |
| CC(=O)[C@H]1CC[C@H]2[C@@H]3CCC4=CC(=O)CC[C@]4(C)[C@H]3CC[C@]12C [Progesterone] | < 0.001 |
| C[C@]12CC[C@@H](O)C[C@@H]1CC[C@@H]1[C@@H]2CC[C@]2(C)C(=O)CC[C@@H]12 [Androsterone] | < 0.001 |
| C[C@]12CC[C@@H]3c4cc(O)c(O)cc4CC[C@H]3[C@@H]1CCC2=O [2-Hydroxyestrone] | < 0.001 |
| C[C@]12CC[C@@H]3c4ccc(O)cc4CC[C@H]3[C@@H]1C[C@@H](O)[C@@H]2O [Estriol] | 0.033 |
| C[C@]12CC[C@@H]3c4ccc(O)cc4CC[C@H]3[C@@H]1C[C@@H](O[C@@H]1O[C@H](C(=O)O)[C@@H](O)[C@H](O)[C@H]1O)[C@@H]2O [Estriol-16-glucuronide] | < 0.001 |
| C[C@]12CC[C@H]3[C@@H](CCC4=CC(=O)CC[C@@]43C)[C@@H]1CC[C@@H]2O [Testosterone] | < 0.001 |
| C[C@]12CCC(=O)C=C1CC[C@@H]1[C@@H]2CC[C@]2(C)C(=O)CC[C@@H]12 [4-Androsterone-3,17-dione] | < 0.001 |
| C[C@]12CC[C@@H]3c4ccc(OS(=O)(=O)O)cc4CC[C@H]3[C@@H]1C[C@@H](O)[C@@H]2O [Estriol-3-sulfate] | 100 |
| C[C@]12CC[C@@H]3c4ccc(O)cc4CC[C@H]3[C@@H]1C[C@H](O)[C@@H]2O [16-Epiestriol] | < 0.001 |
| C[C@]12CC[C@H]3[C@@H](CCC4=CC(=O)CC[C@@]43C)[C@@H]1CC[C@@H]2OS(=O)(=O)O [Testosterone sulfate] | 0.004 |
| C[C@]12CC[C@@H]3c4ccc(OS(=O)(=O)O)cc4CC[C@H]3[C@@H]1CC[C@@H]2O [Estradiol-3-sulfate] | 0.144 |
| C[C@]12CC[C@@H]3c4ccc(O[C@@H]5O[C@H](C(=O)O)[C@@H](O)[C@H](O)[C@H]5O)cc4CC[C@H]3[C@@H]1CCC2=O [Estrone glucuronide] | < 0.001 |
| COc1ccc2c(c1)CC[C@@H]1[C@@H]2CC[C@]2(C)C(=O)CC[C@@H]12 [Estrone methyl ether] | < 0.001 |
| C[C@]12CC[C@@H]3c4ccc(O)cc4CC[C@H]3[C@@H]1C[C@@H](O)[C@@H]2O[C@@H]1O[C@H](C(=O)O)[C@@H](O)[C@H](O)[C@H]1O [Estriol-17-glucuronide] | < 0.001 |
| C[C@]12CC[C@@H]3c4ccc(OS(=O)(=O)O)cc4CC[C@H]3[C@@H]1CCC2=O [Estrone sulfate] | 0.060 |
| C[C@]12C[C@H](O)[C@H]3[C@@H](CCC4=CC(=O)CC[C@@]43C)[C@@H]1CC[C@@H]2C(=O)CO [Corticosterone] | < 0.001 |
| CC(C)CCC[C@@H](C)[C@H]1CC[C@H]2[C@@H]3CC=C4C[C@@H](OS(=O)(=O)O)CC[C@]4(C)[C@H]3CC[C@]12C [Cholesterol sulfate] | 0.081 |
| C[C@]12CC[C@@H]3c4ccc(O)c(O)c4CC[C@H]3[C@@H]1CCC2=O [4-Hydroxyestrone] | < 0.001 |
| C[C@]12CC[C@@H]3c4ccc(O)cc4CC[C@H]3[C@@H]1CC[C@@H]2O[C@@H]1O[C@H](C(=O)O)[C@@H](O)[C@H](O)[C@H]1O [Estradiol-17-glucuronide] | < 0.001 |
| CC(C)CCC[C@@H](C)[C@H]1CC[C@H]2[C@@H]3CC=C4C[C@@H](O)CC[C@]4(C)[C@H]3CC[C@]12C [Cholesterol] | < 0.001 |
| C[C@]12CC[C@@H]3c4ccc(O)cc4CC[C@H]3[C@@H]1CCC2=O [Estrone] | < 0.001 |
| C[C@]12CC[C@@H]3c4ccc(O)cc4CC[C@H]3[C@@H]1CC[C@@H]2O [Estradiol] | < 0.001 |
| C[C@]12CC[C@H](OS(=O)(=O)O)CC1=CC[C@@H]1[C@@H]2CC[C@]2(C)C(=O)CC[C@@H]12 [Dehydroepiandrosterone sulfate] | 0.077 |
| C[C@]12CC[C@@H]3c4ccc(O[C@@H]5O[C@H](C(=O)O)[C@@H](O)[C@H](O)[C@H]5O)cc4CC[C@H]3[C@@H]1C[C@@H](O)[C@@H]2O [Estriol-3-glucuronide] | 0.050 |

Same assay, conditions: mass ratio of non-labeled estriol-3-sulfate to each steroid required for 50% inhibition of labeled estriol-3-sulfate binding; listed as dehydroepiandrosterone sulfate

| Structure (SMILES) | Cross-reaction (%) |
| --- | --- |
| C[C@]12CC[C@H](OS(=O)(=O)O)CC1=CC[C@@H]1[C@@H]2CC[C@]2(C)C(=O)CC[C@@H]12 [Dehydroepiandrosterone sulfate] | 0.77 |
